Marks after values point to notes of the source that are not given here.
Key:
IL-5 production = assay: In vitro inhibition of IL-5 production in human blood (phytohemagglutinin-stimulated whole blood, ELISA); format: cell-based; details: 48 hours; for inhibition at 1 µM / % inh. (percentage inhibition of IL-5 production): test dose 1×10^−6 M; for inhibition at 1 µM: read-out: % inh. (percentage inhibition of IL-5 production)
Outline: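 Percent inhibition of IL-5, quantified by ELISA in cell-free supernatants, is given at a single dose of 1×10^−6 M (or 1×10^−5 M). Threefold-diluted human whole blood from healthy men received compound for 60 min at 37° C before 48 h PHA stimulation at 2 μg/mL.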

Row | SMILES | % inh. (percentage inhibition of IL-5 production) (IL-5 production) | other results
1 | O=C(CO)Nc1ccccc1-c1nnc(C(c2ccc(Cl)cc2)c2c(Cl)cc(-n3ncc(=O)[nH]c3=O)cc2Cl)o1 (racemic) [Compound 213, (±)-N-[2-[5-[(4-chlorophenyl)[2,6-dichloro-4-(4,5-dihydro-3,5-dioxo-1,2,4-triazin-2(3H)-yl)phenyl]methyl]-1,3,4-oxadiazol-2-yl]phenyl]-2-hydroxyacetamide] | – | inhibition at 1 µM (IL-5 production): 32%; melting point: 235 °C
2 | O=C(O)c1sc(C(c2ccc(Cl)cc2)c2c(Cl)cc(-n3ncc(=O)[nH]c3=O)cc2Cl)nc1-c1ccccc1 (racemic) [Compound 299, (±)-2-[(4-chlorophenyl)[2,6-dichloro-4-(4,5-dihydro-3,5-dioxo-1,2,4-triazin-2(3H)-yl)phenyl]-methyl]-4-phenyl-5-thiazolcarboxylic acid] | – | inhibition at 1 µM (IL-5 production): 38%; melting point: 206 °C
3 | O=c1cnn(-c2cc(Cl)c(C(c3ccc(Cl)cc3)c3nc(-c4ccccc4)no3)c(Cl)c2)c(=O)[nH]1 (racemic) [Compound 429, (±)-2-[3,5-dichloro-4-[(4-chlorophenyl)(3-phenyl-1,2,4-oxadiazol-5-yl)methyl]phenyl]-1,2,4-triazin-3,5(2H,4H)-dione] | – | inhibition at 1 µM (IL-5 production): 78%; melting point: 128 °C
4 | CN(C)C(=O)c1sc(C(c2ccc(Cl)cc2)c2c(Cl)cc(-n3ncc(=O)[nH]c3=O)cc2Cl)nc1-c1ccccc1 (racemic) [Compound 303, (±)-N,N-dimethyl-2-[(4-chlorophenyl)[2,6-dichloro-4-(4,5-dihydro-3,5-dioxo-1,2,4-triazin-2(3H)-yl)phenyl]methyl]-4-phenylthiazol-5-carboxamide] | – | inhibition at 1 µM (IL-5 production): 85%; melting point: 150 °C
5 | O=c1cnn(-c2ccc(C(c3ccc(Cl)cc3)c3nc(-c4ccccc4)cs3)c(Cl)c2)c(=O)[nH]1 (racemic) [Compound 419, (±)-2-[3-chloro-4-[(4-chlorophenyl)(4-phenyl-2-thiazolyl)methyl]phenyl]-1,2,4-triazine-3,5(2H,4H)-dione] | – | inhibition at 1 µM (IL-5 production): 5%; melting point: 90 °C
6 | CN(C)Cc1sc(C(c2ccc(Cl)cc2)c2c(Cl)cc(-n3ncc(=O)[nH]c3=O)cc2Cl)nc1-c1ccccc1F (racemic) [Compound 325, (±)-2-[4-[(4-chlorophenyl)[5-[(dimethylamino)methyl]-4-(2-fluorophenyl)-2-thiazolyl]methyl]-3,5-dichlorophenyl]-1,2,4-triazine-3,5(2H,4H)-dione] | – | inhibition at 1 µM (IL-5 production): 95%; melting point: 250 °C
7 | NCc1sc(C(c2ccc(Cl)cc2)c2c(Cl)cc(-n3ncc(=O)[nH]c3=O)cc2Cl)nc1-c1ccccc1 (racemic) [Compound 329, (±)-2-[4-[[5-(aminomethyl)-4-phenyl-2-thiazolyl](4-chlorophenyl)methyl]-3,5-dichlorophenyl]-1,2,4-triazine-3,5(2H,4H)-dione] | – | inhibition at 1 µM (IL-5 production): 88%; melting point: 170 °C
8 | O=c1cnn(-c2cc(Cl)c(C(Sc3ccccn3)c3ccc(Cl)cc3)c(Cl)c2)c(=O)[nH]1 (centres unmarked) [Compound 377] | 87% | –
9 | N#CCc1nnc(C(c2ccc(Cl)cc2)c2c(Cl)cc(-n3ncc(=O)[nH]c3=O)cc2Cl)o1 (racemic) [Compound 179] | 21% | –
10 | CC(c1ccc(Cl)c(Cl)c1)(c1nc(-c2ccccc2)c(-c2ccccc2)s1)c1c(Cl)cc(-n2ncc(=O)[nH]c2=O)cc1Cl (racemic) [Comp 228] | 81% | –
11 | O=c1cnn(-c2cc(Cl)c(C(c3ccc(Cl)cc3)c3nc(-c4cccc(C(F)(F)F)c4)cs3)c(Cl)c2)c(=O)[nH]1 (racemic) [Comp 20] | 70% | –
12 | Cc1oc(C(c2ccc(Cl)cc2)c2c(Cl)cc(-n3ncc(=O)[nH]c3=O)cc2Cl)nc1-c1ccccc1 (centres unmarked) [Comp 426] | 92% | –
13 | CN1CCC(C(=O)Cc2sc(C(c3ccc(Cl)cc3)c3c(Cl)cc(-n4ncc(=O)[nH]c4=O)cc3Cl)nc2-c2ccccc2)CC1 (racemic) [Comp 283] | 93% | –
14 | O=c1cnn(-c2ccc(C(c3ccncc3)c3ccc(Cl)cc3)c(Cl)c2)c(=O)[nH]1 (centres unmarked) [Comp 112] | 62% | –
15 | CC(c1ccc(Cl)cc1)(c1nc(-c2ccccc2)no1)c1ccc(-n2ncc(=O)[nH]c2=O)cc1Cl (racemic) [Comp 106] | 77% | –
16 | O=c1cnn(-c2ccc(C(SCc3ccc(Cl)cc3)c3ccc(Cl)cc3)c(Cl)c2)c(=O)[nH]1 (racemic) [Compound 67] | 69% | –
17 | CCOC(=O)Cc1sc(C(c2ccc(Cl)cc2)c2c(Cl)cc(-n3ncc(=O)[nH]c3=O)cc2Cl)nc1-c1ccccc1Cl (racemic) [Comp 293] | 59% | –
18 | O=c1cnn(-c2ccc(C(Sc3nc4ccccc4s3)c3ccc(Cl)cc3)c(Cl)c2)c(=O)[nH]1 (racemic) [Compound 77] | 65% | –
19 | O=c1cnn(-c2ccc(C(c3ccc(Cl)cc3)c3nc(-c4ccccc4)no3)c(Cl)c2)c(=O)[nH]1 (racemic) [Compound 125, (±)-2-[(3-chloro-4-[(4-chlorophenyl)(3-phenyl-1,2,4-oxadiazol-5-yl)methyl]phenyl]-1,2,4-triazine-3,5(2H,4H)-dione] | 52% | –
20 | CN(C)c1cccc(-c2nnc(C(c3ccc(Cl)cc3)c3c(Cl)cc(-n4ncc(=O)[nH]c4=O)cc3Cl)o2)c1 (racemic) [Compound 182] | 75% | –
21 | Cc1c(NS(N)(=O)=O)cccc1-c1nnc(C(c2ccc(Cl)cc2)c2c(Cl)cc(-n3ncc(=O)[nH]c3=O)cc2Cl)o1 (racemic) [Compound 218] | 4% | –
22 | Nc1cc(O)nc(SC(c2ccc(Cl)cc2)c2ccc(-n3ncc(=O)[nH]c3=O)cc2Cl)n1 (centres unmarked) [Compound 87] | 9% | –
23 | COCc1sc(C(c2ccc(Cl)cc2)c2c(Cl)cc(-n3ncc(=O)[nH]c3=O)cc2Cl)nc1-c1ccccc1 (racemic) [Comp 278] | 97% | –
24 | Cc1sc(C(c2ccc(Cl)cc2)c2c(Br)cc(-n3ncc(=O)[nH]c3=O)cc2Br)nc1-c1ccccc1 (racemic) [Comp 330] | 94% | –
25 | CCCc1sc(C(c2ccc(Cl)cc2)c2c(Cl)cc(-n3ncc(=O)[nH]c3=O)cc2Cl)nc1-c1ccccc1 (racemic) [Comp 245] | 98% | –
26 | O=c1cnn(-c2cc(Cl)c(C(c3ccc(Cl)c(C(F)(F)F)c3)c3nc(-c4ccccc4)cs3)c(Cl)c2)c(=O)[nH]1 (racemic) [Comp 226] | 93% | –
27 | O=c1cnn(-c2ccc(C(Sc3nc4ccccc4[nH]3)c3ccc(Cl)cc3)c(Cl)c2)c(=O)[nH]1 (racemic) [Compound 52] | – | % inh. (percentage inhibition of IL-5 production), marked with * (IL-5 production; test dose 1×10^−5 M (values marked *)): 57* %
28 | O=c1cnn(-c2cc(Cl)c(C(c3ccc(Cl)cc3)c3nnc(-c4ccc(Cl)cc4)o3)c(Cl)c2)c(=O)[nH]1 (racemic) [Compound 167] | 82% | –
